Assay results published in patent publication US20150315212A1, “SUBSTITUTED 1,4-DITHIINE DERIVATIVES AND THEIR USE AS FUNGICIDES” (BASF SE, priority 2012, published 2015).

Assays:
Phakopsora pachyrhizi = experiment: Protective control of soy bean rust on soy beans (Example 5); type: in vivo; conditions: 500 ppm, sprayed to run-off 1 day before inoculation, soy bean seedlings, assessed after fourteen days; untreated plants 90% infected
Alternaria solani = conditions: 500 ppm, sprayed the day before inoculation, tomato seedlings, assessed after 5 days; untreated plants 90% infected
Method: Preventative Fungicidal Control of Early Blight on Tomatoes (Alternaria solani)
Young seedlings of tomato plants were grown in pots. These plants were sprayed to run-off with an aqueous suspension, containing the concentration of active ingredient or mixture mentioned in the table below. The next day, the treated plants were inoculated with an aqueous suspension of Alternaria solani. Then the trial plants were immediately transferred to a humid chamber. After 5 days at 18 to 20° C. and a relative humidity close to 100%, the extent of fungal attack on the leaves was visually assessed as % diseased leaf area.

Septoria tritici = experiment: Preventative control of leaf blotch on wheat (Example 4); type: in vivo; conditions: 500 ppm, sprayed the day before inoculation, wheat seedlings, assessed after 4 weeks; untreated plants 90% infected

## 6-Methyl-5H-Pyrrolo[3″,4″:5,6][1,4]dithiino-[2,3-C]isothiazole-3-carbonitrile-5,7(6H)-dione [Example 1.1]
Phakopsora pachyrhizi
  infection (% diseased leaf area): less than or equal to 1%
Alternaria solani
  infection (% diseased leaf area): less than or equal to 5%
Septoria tritici
  infection (% diseased leaf area): less than or equal to 3%
